Assay results published in US10689342B2, “Aza-tanshinone derivatives, process for their preparation and their use in therapy” (UNIVERSITA' DEGLI STUDI DI MILANO, priority 2016, dated 2020).

Columns and labels:
[1] = test system: MCF7; assay: alamar Blue viability assay; assay type: cell-based
Experimental: (§1) Tumor cell lines of metastatic breast cancer (MDA-MB-231), breast cancer (MCF7), human monocytic leukemia (THP-1) and pancreatic carcinoma (PANC-1) have been cultured in a complete DMEM or RPMI 1640 (Gibco Life Technologies) supplemented with 10% fetal bovine serum (FBS, Lonza), 2 mM L-glutamine and 100 U/ml penicillin-streptomycin (Lonza). The cell lines have been cultured at 37° C. in 5% CO2 and have been regularly tested for Mycoplasma contamination. The viability has been measured by means of alamar Blue assay (Thermo Fisher) under treatment for 24 hours with nanomolar to micromolar doses of aza-tanshinones. The mean viability and the standard deviation (SD) per each test compound have been obtained from the dose-response curves for triple doses (0.01, 0.1, 1. 10. 50 μM) in comparison with the control vehicle (DMSO).
(§2) The group of cell lines used in Paragraph 8.2, with the addition of the tumor cell lines of the metastatic breast cancer SK-BR-3 and of the colon adenocarcinoma SW-480, has been used to measure the IC50/cytotoxicity potency of compound 26. The viability assays have been performed as shown in Paragraph 8.2.

[2] = test system: MDA-MB-231; assay: alamar Blue viability assay; assay type: cell-based
Experimental: as §1, §2

[3] = test system: PANC-1; assay: alamar Blue viability assay; assay type: cell-based
Experimental: as §1, §2

[4] = test system: SK-BR-3; assay: alamar Blue viability assay; assay type: cell-based
Experimental: as §1, §2

[5] = test system: SW-480; assay: alamar Blue viability assay; assay type: cell-based
Experimental: as §1, §2

[6] = test system: THP-1; assay: alamar Blue viability assay; assay type: cell-based, human
Experimental: as §1, §2

[7] = test system: TNF mRNA in MCF-7 breast cancer cells; assay: Downregulation of TNF mRNA with LPS co-treatment; assay type: cell-based
Experimental: MCF-7 breast cancer cells (5*10^4/well) have been seeded in 6-well plates and cultured under standard conditions for 24 hours. The MCF-7 cells have then been treated for 3 hours in a complete medium with compound 26, or with DMSO/control vehicle. Three hours of treatment with DHTS in the MCF-7 cells have been enough to observe HuR-dependent post-transcriptional effects (44), whereby the same experimental conditions have been used here, including the co-treatment with lipopolysaccharide (LPS) as positive control to induce the TNF expression.

[8] = test system: THP-1 human leukemia monocytes; assay: Cytokine mRNA levels by Q-RT-PCR; assay type: cell-based; settings: THP-1, LPS 26 vs LPS DMSO = 1
Experimental: THP-1 human leukemia monocytes (5*10^4/well) have been seeded in a 6-well plate and cultured under standard conditions for 24 hours as already described. The mRNA total levels for a group of cytokines have been quantified by means of standard quantitative real-time PCR (Q-RT-PCR). Two-way ANOVA has been applied for a statistical significance of the effects of compound 26 on the decrease of the mRNA of the cytokines.

[9] = test system: MDA-MB-231 cells; assay: xCELLigence trans-well migration assay; assay type: cell-based; settings: MDA-MB-231, THP1-conditioned medium
Excerpt: Migration assays have been carried out by using the xCELLigence RTCA DP Instrument (Roche) by seeding 5,000 cells/well at t0 in CIM-Plates-16 (Roche), using the 1% FBS medium (THP1 conditions) in the lower chamber and MDA-MB-231 cells seeded in the same way in the upper chamber. The ability of the MDA-MB-231 cells to migrate depends also on the presence of cytokines regulated by HuR in the surrounding environment.

[10] = test system: MDA-MB-231; assay: Scratch assay; assay type: cell-based; settings: 24 hours (DMSO 35 ± 1.92)
Experimental: (§3) Scratch assays have been carried out on 6-well plates and, after treatment for 24 hours with aza-tanshinone 26, the empty area of the scratched wells has been calculated by using the ImageJ software. The experiments have been carried out in duplicate.

[11] = test system: PANC1; assay: Scratch assay; assay type: cell-based; settings: 24 hours
Experimental: as §3

O=C1C=Cc2c(c(-c3ccccc3)cn2S(=O)(=O)c2ccccc2)C1=O [Compound 26, 1-Phenylsulfonyl-3-phenyl-4,5-dioxo indole]
IC50 ([1]; Homo sapiens, MCF7, cytotoxicity, 24 hours): 3.85 ± 0.08 µM | % cell death ([1]; MCF7): 71% | IC50 ([2]; Homo sapiens, MDA-MB-231, cytotoxicity, 24 hours): 1.57 ± 0.04 µM | % cell death ([2]; MDA-MB-231): 66% | IC50 ([3]; Homo sapiens, PANC-1, cytotoxicity, 24 hours): 6.27 ± 0.07 µM | % cell death ([3]; PANC-1): 49% | IC50 ([4]; Homo sapiens, SK-BR-3, cytotoxicity, 24 hours): 5.18 ± 0.11 µM | % cell death ([4]; SK-BR-3): 57% | IC50 ([5]; Homo sapiens, SW480, cytotoxicity, 24 hours): 4.81 ± 0.23 µM | % cell death ([5]; SW480): 62% | IC50 ([6]; Homo sapiens, THP-1, cytotoxicity, 24 hours): 9.77 ± 0.15 µM | % cell death ([6]; THP-1): 52% | TNF mRNA level ([7]; MCF-7, LPS+26, 3 hours (LPS+DMSO 1.62)): 1.00 | TNF RNA amount ([7]; MCF-7, LPS+26 relative to LPS+DMSO, 3 hours): 62% | reduction of the TNF mRNA with respect to the control ([7]; MCF-7, after 3 hours): 35% | CCL2 mRNA level [8]: 0.88 | CCL5 mRNA level [8]: 0.51 | CCL8 mRNA level [8]: 0.00 | IFNA1 mRNA level [8]: 0.46 | IFNB1 mRNA level [8]: 0.33 | IFNG mRNA level [8]: 0.38 | IL1A mRNA level [8]: 1.04 | IL1B mRNA level [8]: 0.22 | IL2 mRNA level [8]: 1.18 | IL4 mRNA level [8]: 0.82 | IL7 mRNA level [8]: 0.56 | IL8 mRNA level [8]: 0.15 | IL10 mRNA level [8]: 0.16 | IL13 mRNA level [8]: 0.53 | IL15 mRNA level [8]: 0.91 | IL17A mRNA level [8]: 0.30 | IL18 mRNA level [8]: 0.36 | IL19 mRNA level [8]: 0.01 | TNF mRNA level [8]: 0.38 | Minimum of trans-well migration ([9]; 26 1 μM (LPS control 0.7176)): 0.1057 | Maximum of trans-well migration ([9]; 26 1 μM (LPS control 3.053)): 1.246 | Minimum of trans-well migration ([9]; 26 5 μM (LPS control 0.7176)): 0.1416 | Maximum of trans-well migration ([9]; 26 5 μM (LPS control 3.053)): 0.3311 | empty area of the scratched wells ([10]; MDA-MB-231, 26 1 μM): 45 ± 4 | empty area of the scratched wells ([10]; MDA-MB-231, 26 5 μM): 45 ± 1 | empty area of the scratched wells ([11]; PANC1, 26 1 μM): 38 ± 7 | empty area of the scratched wells ([11]; PANC1, 26 5 μM): 32 ± 0.01
